Measurements: patent publication US10723746B2, “Oxazolidinone-quinolone hybrid antibacterials for the parenteral treatment or prophylaxis of bacterial diseases” (MORPHOCHEM AKTIENGESELLSCHAFT FÜR KOMBINATORISCHE CHEMIE, priority 2013, dated 2020)
≈ marks a conversion by molar mass, not a printed value. Where a name gives a salt, the structure may show the parent alone. Read-outs that look alike come from different tables or passages of the source.

Experiments:
[1] = in vivo; cited from earlier work
[2] = system: anaerobes, in particular Gram-positive anaerobes; conditions: cited from earlier work
[3] = system: Clostridium difficile; assay: Antimicrobial susceptibility of 114 C. difficile strains by agar dilution method; type: cell-based; conditions: for MIC50: Clostridioides difficile, read-out: MIC50
Experimental: One hundred fourteen Clostridium difficile strains were collected from 67 patients and analyzed for the presence of C. difficile toxin B by the cell cytotoxicity neutralization assay, genes for toxin A, toxin B, binary toxin and TcdC deletion by PCR. All strains were also PCR-ribotyped. The MICs of the isolates were determined against Compound 2 by the agar dilution method. All isolates were positive for toxin B. One hundred thirteen isolates were positive for toxin A and B genes. In addition, 13 isolates were positive for the binary toxin genes. Thirty-two different ribotypes were identified. No strain of ribotype 027 was found.
One hundred fourteen C. difficile strains were selected from patients (26 males and 41 females) with primary and/or recurrent CDI. The mean age of the patients was 74 years (age range 19-97 years). The strains (67 primary and 47 recurrent isolates) were identified by characteristic colony morphology, typical smell and Gram staining. Gas chromatography was used to detect volatile, short chain fatty acids production by the C. difficile strains for the final identification.
The antimicrobial susceptibility of the C. difficile strains was determined according to CLSI guidelines by the agar dilution method using Bacteroides fragilis ATCC 25285 and C. difficile ATCC 700057 as reference strains [CLSI. Methods for Antimicrobial Susceptibility Testing of Anaerobic Bacteria; Approved Standard-Eighth Edition. 2012].
MIC was defined as the lowest concentration of the drug that inhibited growth completely. MIC50/90 corresponds to the concentrations that inhibit the growth of 50% and 90%, of the strains tested, respectively.
PCR ribotype profiles from clinical isolates were compared to those profiles which define the database by maximum matching with Pearson correlation. IBM SPSS Statistics 22 (Armonk, N.Y., USA) software was used to calculate the percentiles 50 and 90 of the MIC results. Descriptive statistics were used to summarize the results.

[4] = First-in-Man study: iv. bolus or 20 min infusion of Compound 1; type: in vivo, humans; conditions: for AUC / Cmax: male, human, plasma, mean
Experimental: Volunteers were administered doses of up to 3.0 mg/kg body weight (BW) of Compound 1 given as iv. bolus injection of 2 min duration. Additionally, doses of 1.5 and 3.0 mg/kg BW of Compound 1 were administered as a short-term infusion of 20 min duration, resulting in infusion rates of 4.5 and 9.0 mg/(kg BW×h), respectively.

[5] = system: Gram-negative species; assay: Fecal microflora after i.v. infusions in healthy volunteers; type: in vivo, human; conditions: Compound 1 i.v. 6 mg/kg over 12 hours for 5 days
Experimental: (§1) Healthy human volunteers received i.v. infusions of Compound 1 at a dose of 6 mg/kg body weight over 12 hours for 5 consecutive days. […] Viable counts of lactobacilli were reduced from predose to Day 5 by 4.0 log 10 CFU/g. […] Likewise, enterococci were reduced from predose to Day 5 by 3.8 log 10 CFU/g on average.

[6] = system: Staphylococcus aureus NRS 120; assay: MIC testing according to CLSI guidelines; type: cell-based; conditions: NRS120
From the text: (§2) MIC testing was done according to CLSI (formerly NCCLS) guidelines: Performance Standards for Antimicrobial Susceptibility Testing 11th Informational Supplement, Vol. 21 No 1, M100-S11, January 2001. NCCLS. Revised edition: 17th Informational Supplement, Vol. 27 No 1, […], January 2007.

[7] = system: Streptococcus pneumoniae ATCC 33400; assay: MIC testing according to CLSI guidelines; type: cell-based; conditions: ATCC33400
From the text: as §2

[8] = system: Staphylococcus aureus ATCC 33593; assay: MIC testing according to CLSI guidelines; type: cell-based; conditions: ATCC33593
From the text: as §2

[9] = system: Staphylococcus aureus Visa Mu 50; assay: MIC testing according to CLSI guidelines; type: cell-based
From the text: as §2

[10] = system: Staphylococcus aureus ATCC 29213; assay: MIC testing according to CLSI guidelines; type: cell-based; conditions: ATCC29213
From the text: as §2

[11] = system: Enterococcus faecalis ATCC 51299; assay: MIC testing according to CLSI guidelines; type: cell-based; conditions: ATCC51299
From the text: as §2

[12] = system: Enterococcus faecalis ATCC 29212; assay: MIC testing according to CLSI guidelines; type: cell-based; conditions: ATCC29212
From the text: as §2

[13] = system: Staphylococcus aureus ATCC 43300; assay: MIC testing according to CLSI guidelines; type: cell-based; conditions: ATCC43300
From the text: as §2

[14] = system: lactobacilli; assay: Fecal microflora viable counts after i.v. infusions in healthy volunteers; type: in vivo, human; conditions: Compound 1 i.v. 6 mg/kg over 12 hours for 5 days
Experimental: as §1

[15] = system: Clostridium spp.; assay: as above; type: in vivo, human
Experimental: as §1

[16] = system: bifidobacteria; assay: as above; type: in vivo, human; conditions: Compound 1 i.v. 6 mg/kg over 12 hours for 5 days
Experimental: as §1

[17] = system: enterococci; assay: as above; type: in vivo, human; conditions: Compound 1 i.v. 6 mg/kg over 12 hours for 5 days
Experimental: as §1

[18] = Solubility in aqueous media; type: physicochemical
[19] = cited from earlier work
[20] = system: C difficile; conditions: cited from earlier work
[21] = system: C difficile; conditions: cited from earlier work; remark: listed apart in the source
[22] = system: Clostridium difficile infections (CDI); conditions: oral administration; cited from earlier work
[23] = 114 C. difficile strains, agar dilution
[24] = intravenous, Drug after 3.0 mg/kg BW Compound 1, 20 min infusion, 9.0 mg/(kg BW·h)
[25] = Drug after 3.0 mg/kg BW Compound 1 iv. bolus

In the case of `O=C(O)c1cn(C2CC2)c2cc(N3CCNCC3)c(F)cc2c1=O` [Ciprofloxacin], the Fecal concentrations [1] is listed as “high” and the “Activity in vitro against anaerobes” value [2] is listed as “neither active in vitro”.

In the case of `CC(=O)NC[C@H]1CN(c2ccc(OCC3(O)CCN(c4cc5c(cc4F)c(=O)c(C(=O)O)cn5C4CC4)CC3)c(F)c2)C(=O)O1` [Compound 2, 7-(4-{4-[(5S)-5-(Acetylamino-methyl)-2-oxo-oxazolidin-3-yl]-2-fluoro-phenoxymethyl}-4-hydroxy-piperidin-1-yl)-1-cyclopropyl-6-fluoro-4-oxo-1,4-dihydro-quinoline-3-carboxylic acid], the MIC range ([3]; 114 C. difficile isolates, agar dilution) is reported as 0.008-0.5 mg/1, the MIC90 [3, 23] is reported as 0.064 mg/1 and the “MIC range” value [3, 23] is reported as 0.008 to 0.5 mg/L. The MIC50 [3] was 0.064 µg/mL (≈ 0.102 µM), the MIC50 [3, 23] was 0.032 µg/mL (≈ 0.0511 µM) and the “Susceptibility of the C. difficile isolates” value ([3]; all 114 isolates) was “sensitive”. It also gave an AUC [4, 24] of 3230 ng·h/mL, a Cmax [4, 24] of 3180 ng/mL and an AUC [4, 25] of 2170 ng·h/mL. For the same compound, the Cmax [4, 25] was 2450 ng/mL, the “Effect of exposure of the fecal flora on Gram-negative species” value [5] was “did not affect” and the MIC [6] was 2 µg/mL (≈ 3.19 µM). For the same compound, the MIC [7] was 0.03 µg/mL (≈ 0.0479 µM), the MIC [8] was 0.25 µg/mL (≈ 0.399 µM) and the MIC [9] was 0.5 µg/mL (≈ 0.798 µM). For the same compound, the MIC [10] was 0.5 µg/mL (≈ 0.798 µM), the MIC [11] was 0.25 µg/mL (≈ 0.399 µM) and the MIC [12] was 0.25 µg/mL (≈ 0.399 µM). For the same compound, the MIC [13] was 0.5 µg/mL (≈ 0.798 µM), the “Reduction of viable counts of lactobacilli from predose to Day 5” value [14] was 4.0 log 10 CFU/g and the “Reduction of viable counts of Clostridium spp. from predose to Day 5” value ([15]; Compound 1 i.v. 6 mg/kg over 12 hours for 5 days) was 3.0 log 10 CFU/g. For the same compound, the “Viable counts of Clostridium spp. until Day 3 postdose” value ([15]; all except one of the volunteers) was “reduced below the limit of detection”, the “Reduction of viable counts of bifidobacteria from predose to Day 5” value [16] was 7.9 log 10 CFU/g and the “Reduction of enterococci from predose to Day 5, on average” value [17] was 3.8 log 10 CFU/g.

For `CC(=O)NC[C@H]1CN(c2ccc(OCC3(OP(=O)(O)O)CCN(c4cc5c(cc4F)c(=O)c(C(=O)O)cn5C4CC4)CC3)c(F)c2)C(=O)O1` [Compound 1, sodium salt of 7-(4-{4-[(5S)-5-(Acetylamino-methyl)-2-oxo-oxazolidin-3-yl]-2-fluoro-phenoxymethyl}-4-phosphonooxy-piperidin-1-yl)-1-cyclopropyl-6-fluoro-4-oxo-1,4-dihydro-quinoline-3-carboxylic acid], the “AUC of the Prodrug, 20 min infusion compared to bolus administration” value ([4]; 3.0 mg/kg BW) was “lower AUC”, the “Conversion of the Prodrug to the Drug” value ([4]; humans, all doses applied) was “very rapid conversion” and the “Solubility in aqueous media” value [18] was “very good solubility”.

In the case of `Cc1ncc([N+](=O)[O-])n1CCO` [metronidazole], the “Toxicity associated with long term treatment” value [19] is given as “neurotoxicity”.

For `CC(=O)NC[C@H]1CN(c2ccc(N3CCOCC3)c(F)c2)C(=O)O1` [linezolid], the “Activity in vitro against C difficile” value [20] is listed as “active”, the Fecal concentrations [1] is listed as “negligibly low” and the “Fraction of the dose excreted via the feces” value [1] is listed as 0.2 % of the dose. For the same compound, the “Activity in an in vitro human gut model” value [21] was “inactive”.

In the case of `CCc1c(Cl)c(O)c(Cl)c(O)c1C(=O)O[C@H]1[C@H](O)[C@H](OC)[C@H](OC/C2=C\C=C\C[C@H](O)/C(C)=C/[C@H](CC)[C@@H](O[C@@H]3OC(C)(C)[C@@H](OC(=O)C(C)C)[C@H](O)[C@@H]3O)/C(C)=C/C(C)=C/C[C@@H]([C@@H](C)O)OC2=O)O[C@@H]1C` [fidaxomicin], the “Frequency of recurrence of CDI” value [22] is given as “approximately 13%”.

For `CN[C@H](CC(C)C)C(=O)N[C@H]1C(=O)N[C@@H](CC(N)=O)C(=O)N[C@H]2C(=O)N[C@H]3C(=O)N[C@H](C(=O)N[C@H](C(=O)O)c4cc(O)cc(O)c4-c4cc3ccc4O)[C@H](O)c3ccc(c(Cl)c3)Oc3cc2cc(c3O[C@@H]2O[C@H](CO)[C@@H](O)[C@H](O)[C@H]2O[C@H]2C[C@](C)(N)[C@H](O)[C@H](C)O2)Oc2ccc(cc2Cl)[C@H]1O` [vancomycin], the “Toxicity associated with long term treatment” value [19] is given as “nephrotoxicity”.
